# Results published in patent US20240116985A1, “STAPLED PEPTIDES AND METHODS THEREOF” (priority 2020, published 2024).
# Target: T1, full-length beta-Catenin (Uniprot ID P35222) (Homo sapiens, UniProt P35222)
# T1 construct: 10 nM full-length beta-Catenin (Uniprot ID P35222)
# T1 sequence (P35222 1-781): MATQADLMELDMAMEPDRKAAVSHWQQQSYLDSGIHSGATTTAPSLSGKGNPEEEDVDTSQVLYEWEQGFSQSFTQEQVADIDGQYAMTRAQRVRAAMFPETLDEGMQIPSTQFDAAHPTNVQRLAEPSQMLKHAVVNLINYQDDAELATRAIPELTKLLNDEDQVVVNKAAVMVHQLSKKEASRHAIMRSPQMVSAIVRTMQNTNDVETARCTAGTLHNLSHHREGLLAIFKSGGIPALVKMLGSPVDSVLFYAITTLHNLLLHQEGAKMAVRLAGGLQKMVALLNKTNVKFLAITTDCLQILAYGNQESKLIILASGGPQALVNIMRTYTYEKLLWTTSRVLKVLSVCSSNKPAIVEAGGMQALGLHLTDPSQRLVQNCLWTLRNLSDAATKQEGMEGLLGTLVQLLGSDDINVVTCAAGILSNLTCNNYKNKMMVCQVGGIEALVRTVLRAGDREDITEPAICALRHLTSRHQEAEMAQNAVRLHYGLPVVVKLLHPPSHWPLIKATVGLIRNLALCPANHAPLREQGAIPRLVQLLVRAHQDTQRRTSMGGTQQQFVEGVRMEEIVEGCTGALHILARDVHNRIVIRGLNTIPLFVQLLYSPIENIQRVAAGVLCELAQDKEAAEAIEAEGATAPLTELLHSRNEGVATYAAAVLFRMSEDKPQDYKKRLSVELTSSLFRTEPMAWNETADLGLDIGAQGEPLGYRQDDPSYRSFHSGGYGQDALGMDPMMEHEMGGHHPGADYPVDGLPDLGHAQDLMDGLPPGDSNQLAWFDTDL
# Test: Fluorescence polarization IC50 (beta-catenin / 5FAM-TCF4 10-53 competition)
# Assay type: binding
# Conditions: fluorescence polarization; read-out: beta-Catenin FP IC50
row,IC50 [nM],SMILES
1,2130,"CC(=O)N1CCC[C@]12CC=CCCCC1(CCCC=CCCCOC(=O)N3CC[C@@](C(=O)N[C@@H](Cc4ccccc4)C(=O)N[C@@H](Cc4csc5ccccc45)C(=O)N[C@@H](CCCCNC(C)C)C(N)=O)(C3)NC(=O)[C@H](CCCCNC(C)C)NC(=O)[C@H](Cc3ccccc3)NC(=O)[C@H](C)NC(=O)[C@H](CCCCNC(C)C)NC(=O)[C@H](CCC(N)=O)NC(=O)[C@H](CC(=O)O)NC1=O)NC(=O)[C@H](CC(C)(C)C)NC(=O)[C@H](CC(N)=O)NC2=O (stereo partly drawn) [I-1654, Ac-PL3-Asn-Npg-B5-Asp-Gln-iPrLys-Ala-Phe-iPrLys-PyrS2-Phe-BztA-iPrLys-NH2]"
2,28,"CC(=O)N1CCC[C@]12CC=CCCCC1(CCCC=CCCCOC(=O)N3CC[C@@](C(=O)N[C@@H](Cc4ccccc4Cl)C(=O)N[C@@H](Cc4csc5ccccc45)C(=O)N[C@@H](CCC(N)=O)C(=O)N[C@@H](C)CO)(C3)NC(=O)[C@H](CC(C)C)NC(=O)[C@H](Cc3ccccc3)NC(=O)[C@H](C)NC(=O)[C@H](C)NC(=O)[C@H](Cc3cccc(C(=O)O)c3)NC(=O)[C@H](CC(=O)O)NC1=O)NC(=O)[C@H](CC(C)(C)C)NC(=O)[C@H](CC(=O)O)NC2=O (stereo partly drawn) [I-1673, Ac-PL3-Asp-Npg-B5-Asp-3COOHF-Ala-Ala-Phe-Leu-PyrS2-2C1F-BztA-Gln-Alao1]"
3,91,"CC(=O)N1CCC[C@]12CC=CCCCC1(CCCC=CCCCOC(=O)N3CC[C@@](C(=O)N[C@@H](Cc4ccccc4Cl)C(=O)N[C@@H](Cc4csc5ccccc45)C(=O)N[C@@H](CCC(N)=O)C(=O)N[C@H](CO)CC(C)C)(C3)NC(=O)[C@H](CC(C)C)NC(=O)[C@H](Cc3ccccc3)NC(=O)[C@H](C)NC(=O)[C@H](C)NC(=O)[C@H](Cc3cccc(C(=O)O)c3)NC(=O)[C@H](CC(=O)O)NC1=O)NC(=O)[C@H](CC(C)(C)C)NC(=O)[C@H](CC(=O)O)NC2=O (stereo partly drawn) [I-1676, Ac-PL3-Asp-Npg-B5-Asp-3COOHF-Ala-Ala-Phe-Leu-PyrS2-2C1F-BztA-Gln-Leuo1]"
4,17,"CC(=O)N1CCC[C@]12CC=CCCCC1(CCCC=CCCCOC(=O)N3CC[C@@](C(=O)N[C@@H](Cc4ccccc4Cl)C(=O)N[C@@H](Cc4csc5ccccc45)C(=O)N[C@@H](CCC(N)=O)C(=O)N[C@H](CO)[C@@H](C)O)(C3)NC(=O)[C@H](CC(C)C)NC(=O)[C@H](Cc3ccccc3)NC(=O)[C@H](C)NC(=O)[C@H](C)NC(=O)[C@H](Cc3cccc(C(=O)O)c3)NC(=O)[C@H](CC(=O)O)NC1=O)NC(=O)[C@H](CC(C)(C)C)NC(=O)[C@H](CC(=O)O)NC2=O (stereo partly drawn) [I-1677, Ac-PL3-Asp-Npg-B5-Asp-3COOHF-Ala-Ala-Phe-Leu-PyrS2-2C1F-BztA-Gln-Thro1]"
5,17.5,"CC(=O)N1CCC[C@]12CC=CCCCC1(CCCC=CCCCOC(=O)N3CC[C@@](C(=O)N[C@@H](Cc4ccsc4)C(=O)N[C@@H](Cc4csc5ccccc45)C(=O)N[C@@H](CCC(N)=O)C(=O)N[C@@H](C)CO)(C3)NC(=O)[C@H](CC(C)C)NC(=O)[C@H](Cc3ccccc3)NC(=O)[C@H](C)NC(=O)[C@H](C)NC(=O)[C@H](CN(CC(=O)O)CC(F)(F)F)NC(=O)[C@H](CC(=O)O)NC1=O)NC(=O)[C@H](CC(C)(C)C)NC(=O)[C@H](CC(=O)O)NC2=O (stereo partly drawn) [I-1679, Ac-PL3-Asp-Npg-B5-Asp-TfeGA-Ala-Ala-Phe-Leu-PyrS2-3Thi-BztA-Gln-Alao1]"
6,41,"CC(=O)N1CCC[C@]12CC=CCCCC1(CCCC=CCCCOC(=O)N3CC[C@@](C(=O)N[C@@H](Cc4ccsc4)C(=O)N[C@@H](Cc4csc5ccccc45)C(=O)N[C@@H](CCC(N)=O)C(=O)N[C@H](CO)CC(C)C)(C3)NC(=O)[C@H](CC(C)C)NC(=O)[C@H](Cc3ccccc3)NC(=O)[C@H](C)NC(=O)[C@H](C)NC(=O)[C@H](CN(CC(=O)O)CC(F)(F)F)NC(=O)[C@H](CC(=O)O)NC1=O)NC(=O)[C@H](CC(C)(C)C)NC(=O)[C@H](CC(=O)O)NC2=O (stereo partly drawn) [I-1682, Ac-PL3-Asp-Npg-B5-Asp-TfeGA-Ala-Ala-Phe-Leu-PyrS2-3Thi-BztA-Gln-Leuo1]"
7,11,"CC(=O)N1CCC[C@]12CC=CCCCC1(CCCC=CCCCOC(=O)N3CC[C@@](C(=O)N[C@@H](Cc4ccccc4Cl)C(=O)N[C@@H](Cc4csc5ccccc45)C(=O)N[C@@H](CCC(N)=O)C(N)=O)(C3)NC(=O)[C@H]([C@@H](C)O)NC(=O)[C@H](Cc3ccccc3)NC(=O)[C@H](C)NC(=O)CNC(=O)[C@H](CN(CC(=O)O)CC(F)(F)F)NC(=O)[C@H](CC(=O)O)NC1=O)NC(=O)[C@H](CC(C)(C)C)NC(=O)[C@H](CC(=O)O)NC2=O (stereo partly drawn) [I-1690, Ac-PL3-Asp-Npg-B5-Asp-TfeGA-Gly-Ala-Phe-Thr-PyrS2-2C1F-BztA-Gln-NH2]"

# The next lines start with the molecule.
row,SMILES,IC50 [nM]
1,"CC(=O)N1CCC[C@]12CC=CCCCC1(CCCC=CCCCOC(=O)N3CC[C@@](C(=O)N[C@@H](Cc4ccccc4)C(=O)N[C@@H](Cc4csc5ccccc45)C(=O)N[C@@H](CCCCNC(C)C)C(N)=O)(C3)NC(=O)[C@H](CC(C)C)NC(=O)[C@H](Cc3ccccc3)NC(=O)[C@H](C)NC(=O)[C@H](CCCCNC(C)C)NC(=O)[C@H](CCC(N)=O)NC(=O)[C@H](CC(=O)O)NC1=O)NC(=O)[C@H](CC(C)(C)C)NC(=O)[C@H](CC(N)=O)NC2=O (stereo partly drawn) [I-1645, Ac-PL3-Asn-Npg-B5-Asp-Gln-iPrLys-Ala-Phe-Leu-PyrS2-Phe-BztA-iPrLys-NH2]",940
2,"CC(=O)N1CCC[C@]12CC=CCCCC1(CCCC=CCCCOC(=O)N3CC[C@@](C(=O)N[C@@H](Cc4ccccc4)C(=O)N[C@@H](Cc4csc5ccccc45)C(=O)N[C@@H](CCO)C(N)=O)(C3)NC(=O)[C@H](CC(C)C)NC(=O)[C@H](Cc3ccccc3)NC(=O)[C@H](C)NC(=O)[C@H](CCCCNC(C)C)NC(=O)[C@H](CCC(N)=O)NC(=O)[C@H](CC(=O)O)NC1=O)NC(=O)[C@H](CC(C)(C)C)NC(=O)[C@H](CC(N)=O)NC2=O (stereo partly drawn) [I-1646, Ac-PL3-Asn-Npg-B5-Asp-Gln-iPrLys-Ala-Phe-Leu-PyrS2-Phe-BztA-Hse-NH2]",640
3,"CC(=O)N1CCC[C@]12CC=CCCCC1(CCCC=CCCCOC(=O)N3CC[C@@](C(=O)N[C@@H](Cc4ccccc4)C(=O)N[C@@H](Cc4csc5ccccc45)C(=O)N[C@@H](CCC(N)=O)C(N)=O)(C3)NC(=O)[C@H](CC(C)C)NC(=O)[C@H](Cc3ccccc3)NC(=O)[C@H](C)NC(=O)[C@H](CCCCNC(C)C)NC(=O)[C@H](CCC(N)=O)NC(=O)[C@H](CC(=O)O)NC1=O)NC(=O)[C@H](Cc1ccc(O)cc1)NC(=O)[C@H](CC(N)=O)NC2=O (stereo partly drawn) [I-1647, Ac-PL3-Asn-Tyr-B5-Asp-Gln-iPrLys-Ala-Phe-Leu-PyrS2-Phe-BztA-Gln-NH2]",2350
4,"CC(=O)N1CCC[C@]12CC=CCCCC1(CCCC=CCCCOC(=O)N3CC[C@@](C(=O)N[C@@H](Cc4ccccc4)C(=O)N[C@@H](Cc4csc5ccccc45)C(=O)N[C@@H](CCC(N)=O)C(N)=O)(C3)NC(=O)[C@H](CC(C)C)NC(=O)[C@H](CC3CCCCC3)NC(=O)[C@H](C)NC(=O)[C@H](CCCCNC(C)C)NC(=O)[C@H](CCC(N)=O)NC(=O)[C@H](CC(=O)O)NC1=O)NC(=O)[C@H](CC(C)(C)C)NC(=O)[C@H](CC(N)=O)NC2=O (stereo partly drawn) [I-1649, Ac-PL3-Asn-Npg-B5-Asp-Gln-iPrLys-Ala-Cha-Leu-PyrS2-Phe-BztA-Gln-NH2]",2480
5,"CC(=O)N1CCC[C@]12CC=CCCCC1(CCCC=CCCCOC(=O)N3CC[C@@](C(=O)N[C@@H](Cc4ccccc4)C(=O)N[C@@H](Cc4csc5ccccc45)C(=O)N[C@@H](CCC(N)=O)C(N)=O)(C3)NC(=O)[C@H](CC3CCCCC3)NC(=O)[C@H](Cc3ccccc3)NC(=O)[C@H](C)NC(=O)[C@H](CCCCNC(C)C)NC(=O)[C@H](CCC(N)=O)NC(=O)[C@H](CC(=O)O)NC1=O)NC(=O)[C@H](CC(C)(C)C)NC(=O)[C@H](CC(N)=O)NC2=O (stereo partly drawn) [I-1650, Ac-PL3-Asn-Npg-B5-Asp-Gln-iPrLys-Ala-Phe-Cha-PyrS2-Phe-BztA-Gln-NH2]",1680
6,"CC(=O)N1CCC[C@]12CC=CCCCC1(CCCC=CCCCOC(=O)N3CC[C@@](C(=O)N[C@@H](CC4CCCCC4)C(=O)N[C@@H](Cc4csc5ccccc45)C(=O)N[C@@H](CCC(N)=O)C(N)=O)(C3)NC(=O)[C@H](CC(C)C)NC(=O)[C@H](Cc3ccccc3)NC(=O)[C@H](C)NC(=O)[C@H](CCCCNC(C)C)NC(=O)[C@H](CCC(N)=O)NC(=O)[C@H](CC(=O)O)NC1=O)NC(=O)[C@H](CC(C)(C)C)NC(=O)[C@H](CC(N)=O)NC2=O (stereo partly drawn) [I-1651, Ac-PL3-Asn-Npg-B5-Asp-Gln-iPrLys-Ala-Phe-Leu-PyrS2-Cha-BztA-Gln-NH2]",3970
7,"CC(=O)N1CCC[C@]12CC=CCCCC1(CCCC=CCCCOC(=O)N3CC[C@@](C(=O)N[C@@H](Cc4ccccc4)C(=O)N[C@@H](Cc4csc5ccccc45)C(=O)N[C@@H](CCC(N)=O)C(N)=O)(C3)NC(=O)[C@H](CCCCNC(C)C)NC(=O)[C@H](Cc3ccccc3)NC(=O)[C@H](C)NC(=O)[C@H](CCCCNC(C)C)NC(=O)[C@H](CCC(N)=O)NC(=O)[C@H](CC(=O)O)NC1=O)NC(=O)[C@H](CC(C)(C)C)NC(=O)[C@H](CC(N)=O)NC2=O (stereo partly drawn) [I-1653, Ac-PL3-Asn-Npg-B5-Asp-Gln-iPrLys-Ala-Phe-iPrLys-PyrS2-Phe-BztA-Gln-NH2]",903
